According to patent EP4610262A1, “MACROCYCLIC COMPOUND AS CDK9 INHIBITOR AND USE THEREOF” (Artivila Biopharma, priority 2022, dated 2024):
Where two headings read alike, the source gives them in different places.

Legend:
[1] = molecular target: RET (Homo sapiens, UniProt P07949); assay: Kinase selectivity, inhibition rate at 10 nM (caliper mobility shift assay); assay type: biochemical; conditions: compound at 10 nM
Protocol: (§1) Compounds were tested at a concentration of 10 nM with detection in duplicate wells, or tested at 10 concentrations starting from 10 µM with three-fold serial dilutions, with detection in duplicate wells.
(§2) The inhibitory effect of the compounds on the activity of CDK9 protein kinase was detected by the caliper mobility shift assay method. 250 nL of the compound at 100-fold final concentration was transferred to a target 384-well-plate with a dispenser Echo 550. A kinase solution at 2.5-fold final concentration was prepared using 1× kinase buffer. 10 µL of the kinase solution at 2.5-fold final concentration was added to the compound well and positive control well respectively. 10 µL of 1× kinase buffer was added to the negative control well. The 384-well plate was centrifuged at 1000 rpm for 30 seconds and incubated at room temperature for 10 minutes. A mixed solution of ATP and kinase substrate at 5/3-fold final concentration was prepared with 1× kinase buffer, and to the 384-well plate was added with 15 µL per well of the mixed solution of ATP and substrate at 5/3-fold final concentration to start the reaction. The plate was centrifuged at 1000 rpm for 30 seconds, shaken to mix evenly, and incubated at room temperature for a corresponding time. 30 µL of detection stopping solution was added to terminate the kinase reaction. The 384-well plate was centrifuged at 1000 rpm for 30 seconds and shaken to mix evenly. The conversion rate was read with Caliper EZ Reader. The percent conversion inhibition rate = (% positive control conversion rate mean - % sample conversion rate / (% positive control conversion rate mean - % negative control conversion rate mean). Among them: negative control wells represent the conversion rate readings of kinase buffer background wells; positive control wells represent the conversion rate readings of wells without inhibition by compound. With the log value of concentration as the x-axis and the percentage inhibition rate as the y-axis, a dose-response curve was fitted using the log (inhibitor) vs. response -Variable slope of the analysis software GraphPad Prism 5 to obtain the IC50 value of each compound on enzyme activity. Calculation formula: y=Bottom + (Top-Bottom)/(1+10^((LogIC50-x) × hillslope)), x: logarithm of inhibitor concentration; y: % inhibition rate.
(§3) According to the description of the above experiment on kinase activity inhibition, some compounds were tested for their selective inhibition rate against the kinases of CDK7, CDK9, JAK1, JAK2, JAK3, ITK, RET, TYK2, and LRRK2 at 10 nM. The results are shown in Table 3 below: (Inhibition rate range: A>50%; B: 25-49%; C: <25%): […]

[2] = molecular target: CDK7 (Homo sapiens, UniProt P50613); assay: as above; assay type: biochemical; conditions: compound at 10 nM
CDK7, sequence (P50613 whole entry): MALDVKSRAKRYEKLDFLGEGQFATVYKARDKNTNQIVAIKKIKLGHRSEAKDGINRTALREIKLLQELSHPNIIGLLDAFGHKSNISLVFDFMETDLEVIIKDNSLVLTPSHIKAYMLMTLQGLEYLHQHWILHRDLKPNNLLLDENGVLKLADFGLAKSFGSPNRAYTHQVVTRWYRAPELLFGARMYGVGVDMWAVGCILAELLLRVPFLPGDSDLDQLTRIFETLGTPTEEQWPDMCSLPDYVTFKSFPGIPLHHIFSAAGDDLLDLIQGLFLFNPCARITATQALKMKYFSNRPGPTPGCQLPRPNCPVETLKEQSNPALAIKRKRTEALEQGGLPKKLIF
CDK7, sequence (P51946 whole entry partner): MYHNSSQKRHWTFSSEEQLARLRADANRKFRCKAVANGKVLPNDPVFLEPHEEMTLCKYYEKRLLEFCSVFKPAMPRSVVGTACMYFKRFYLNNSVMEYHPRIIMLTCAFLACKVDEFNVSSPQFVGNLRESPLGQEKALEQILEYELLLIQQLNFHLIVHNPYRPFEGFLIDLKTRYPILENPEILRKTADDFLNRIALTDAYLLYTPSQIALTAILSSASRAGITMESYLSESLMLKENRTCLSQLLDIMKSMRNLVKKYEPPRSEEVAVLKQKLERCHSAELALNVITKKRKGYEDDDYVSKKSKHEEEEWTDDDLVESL
CDK7, sequence (P51948 whole entry partner): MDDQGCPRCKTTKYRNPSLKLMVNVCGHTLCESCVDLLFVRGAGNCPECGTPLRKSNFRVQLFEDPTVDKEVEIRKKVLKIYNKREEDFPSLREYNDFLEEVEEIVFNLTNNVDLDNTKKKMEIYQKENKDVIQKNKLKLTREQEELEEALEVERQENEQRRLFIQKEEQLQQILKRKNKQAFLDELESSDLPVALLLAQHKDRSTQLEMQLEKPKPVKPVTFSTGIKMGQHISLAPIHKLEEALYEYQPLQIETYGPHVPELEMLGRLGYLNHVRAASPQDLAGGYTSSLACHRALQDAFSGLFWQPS
Protocol: as §1, §2, §3

[3] = molecular target: JAK1 (Homo sapiens, UniProt P23458); assay: as above; assay type: biochemical; conditions: compound at 10 nM
JAK1, sequence (P23458 whole entry): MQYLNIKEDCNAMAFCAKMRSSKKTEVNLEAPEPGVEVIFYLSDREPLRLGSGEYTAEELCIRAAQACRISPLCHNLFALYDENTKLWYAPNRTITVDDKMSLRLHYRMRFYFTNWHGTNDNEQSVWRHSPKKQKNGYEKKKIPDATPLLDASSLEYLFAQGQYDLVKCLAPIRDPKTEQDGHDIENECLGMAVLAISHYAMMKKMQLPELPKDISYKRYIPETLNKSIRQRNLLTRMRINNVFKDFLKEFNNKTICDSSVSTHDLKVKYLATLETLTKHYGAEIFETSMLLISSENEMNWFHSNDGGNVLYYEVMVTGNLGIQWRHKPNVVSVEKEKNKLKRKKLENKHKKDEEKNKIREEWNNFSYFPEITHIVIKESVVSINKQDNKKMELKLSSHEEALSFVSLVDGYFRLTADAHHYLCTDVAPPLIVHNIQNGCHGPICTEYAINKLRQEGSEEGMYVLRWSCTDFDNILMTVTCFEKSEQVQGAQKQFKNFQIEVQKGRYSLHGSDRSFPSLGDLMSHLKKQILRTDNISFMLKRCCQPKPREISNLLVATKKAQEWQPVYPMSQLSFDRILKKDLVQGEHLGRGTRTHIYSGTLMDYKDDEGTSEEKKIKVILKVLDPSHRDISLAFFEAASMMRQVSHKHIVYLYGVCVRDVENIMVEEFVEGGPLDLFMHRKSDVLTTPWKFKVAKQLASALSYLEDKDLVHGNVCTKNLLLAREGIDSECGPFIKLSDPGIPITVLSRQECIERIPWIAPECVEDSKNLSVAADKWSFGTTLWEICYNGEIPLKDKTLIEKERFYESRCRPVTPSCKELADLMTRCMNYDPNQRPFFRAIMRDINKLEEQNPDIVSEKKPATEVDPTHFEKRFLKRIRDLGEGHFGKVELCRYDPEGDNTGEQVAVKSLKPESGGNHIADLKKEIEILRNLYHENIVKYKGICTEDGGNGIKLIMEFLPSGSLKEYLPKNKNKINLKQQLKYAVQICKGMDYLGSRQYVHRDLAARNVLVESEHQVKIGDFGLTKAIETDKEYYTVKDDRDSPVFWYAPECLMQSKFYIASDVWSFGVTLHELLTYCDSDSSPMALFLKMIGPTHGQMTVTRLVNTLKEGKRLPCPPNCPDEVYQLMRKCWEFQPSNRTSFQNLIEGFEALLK
Protocol: as §1, §2, §3

[4] = molecular target: ITK (Homo sapiens, UniProt Q08881); assay: as above; assay type: biochemical; conditions: compound at 10 nM
ITK, sequence (Q08881 whole entry): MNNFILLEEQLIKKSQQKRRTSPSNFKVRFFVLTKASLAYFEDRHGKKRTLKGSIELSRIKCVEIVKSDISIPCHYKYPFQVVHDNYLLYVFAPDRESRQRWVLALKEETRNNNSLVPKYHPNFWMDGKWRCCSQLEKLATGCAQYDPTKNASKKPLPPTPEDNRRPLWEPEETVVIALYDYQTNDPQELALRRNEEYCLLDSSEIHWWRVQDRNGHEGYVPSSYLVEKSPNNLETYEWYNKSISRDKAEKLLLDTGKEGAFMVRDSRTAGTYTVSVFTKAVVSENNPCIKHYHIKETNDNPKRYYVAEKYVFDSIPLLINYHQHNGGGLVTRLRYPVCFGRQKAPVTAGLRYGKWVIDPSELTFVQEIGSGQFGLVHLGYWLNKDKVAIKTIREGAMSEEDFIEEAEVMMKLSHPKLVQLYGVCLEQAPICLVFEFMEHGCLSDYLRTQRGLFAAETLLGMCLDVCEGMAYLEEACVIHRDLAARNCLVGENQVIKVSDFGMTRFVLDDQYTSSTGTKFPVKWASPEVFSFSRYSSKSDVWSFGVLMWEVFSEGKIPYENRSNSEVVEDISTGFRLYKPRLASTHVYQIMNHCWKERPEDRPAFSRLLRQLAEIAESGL
Protocol: as §1, §2, §3

[5] = molecular target: JAK2 (Homo sapiens, UniProt O60674); assay: as above; assay type: biochemical; conditions: compound at 10 nM
JAK2, sequence (O60674 whole entry): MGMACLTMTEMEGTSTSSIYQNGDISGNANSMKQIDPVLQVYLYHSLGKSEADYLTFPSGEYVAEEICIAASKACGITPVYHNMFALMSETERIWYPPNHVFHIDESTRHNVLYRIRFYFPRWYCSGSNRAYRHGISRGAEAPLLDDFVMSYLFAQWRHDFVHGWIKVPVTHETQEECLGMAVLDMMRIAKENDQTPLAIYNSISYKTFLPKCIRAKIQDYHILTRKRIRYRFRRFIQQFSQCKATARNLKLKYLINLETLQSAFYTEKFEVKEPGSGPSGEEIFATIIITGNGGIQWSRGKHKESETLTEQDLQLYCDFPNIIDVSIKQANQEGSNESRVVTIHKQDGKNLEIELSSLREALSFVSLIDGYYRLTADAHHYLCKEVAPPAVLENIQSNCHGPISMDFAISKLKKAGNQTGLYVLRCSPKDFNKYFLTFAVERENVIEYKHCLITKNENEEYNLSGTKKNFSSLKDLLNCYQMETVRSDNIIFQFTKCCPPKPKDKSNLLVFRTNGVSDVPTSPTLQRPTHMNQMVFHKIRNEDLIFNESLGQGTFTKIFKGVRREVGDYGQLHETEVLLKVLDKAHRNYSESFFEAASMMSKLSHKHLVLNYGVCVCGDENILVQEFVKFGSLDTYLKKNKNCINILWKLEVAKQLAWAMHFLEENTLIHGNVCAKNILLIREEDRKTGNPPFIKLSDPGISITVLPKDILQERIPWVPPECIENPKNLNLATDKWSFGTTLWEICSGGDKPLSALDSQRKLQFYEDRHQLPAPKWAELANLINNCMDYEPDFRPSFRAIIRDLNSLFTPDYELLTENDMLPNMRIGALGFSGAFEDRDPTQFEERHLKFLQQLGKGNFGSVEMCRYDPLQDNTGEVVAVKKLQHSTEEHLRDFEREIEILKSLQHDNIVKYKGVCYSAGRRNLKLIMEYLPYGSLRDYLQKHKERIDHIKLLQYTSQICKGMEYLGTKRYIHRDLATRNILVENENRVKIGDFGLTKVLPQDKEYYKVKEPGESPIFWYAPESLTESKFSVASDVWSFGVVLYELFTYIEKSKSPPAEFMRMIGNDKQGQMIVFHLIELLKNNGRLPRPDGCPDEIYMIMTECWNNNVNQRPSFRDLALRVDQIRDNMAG
Protocol: as §1, §2, §3

[6] = molecular target: JAK3 (Homo sapiens, UniProt P52333); assay: as above; assay type: biochemical; conditions: compound at 10 nM
Protocol: as §1, §2, §3

[7] = molecular target: TYK2 (Homo sapiens, UniProt P29597); assay: as above; assay type: biochemical; conditions: compound at 10 nM
Protocol: as §1, §2, §3

[8] = molecular target: LRRK2 (Homo sapiens, UniProt Q5S007); assay: as above; assay type: biochemical; conditions: compound at 10 nM
Protocol: as §1, §2, §3

[9] = test system: MV-4-11; assay: CDK9 cell activity assay, cell growth inhibition (CellTiter-Glo, 72 hours); assay type: cell-based; conditions: Homo sapiens, MV4-11
Protocol: (§4) In the CDK9 cell activity assay, the cell line MV-4-11 was cultured in IMDM culture medium containing 10% fetal bovine serum (containing 100 U/mL penicillin and 0.1 g/L streptomycin); the cell line HCC1187 was cultured in RPMI-1640 culture medium containing 10% fetal bovine serum (containing 100 U/mL penicillin and 0.1 g/L streptomycin); the cell line Mia Paca-2 was cultured in DMEM containing 10% fetal bovine serum and 2.5% horse serum (containing 100 U/mL penicillin and 0.1 g/L streptomycin); and the cell line A375 was cultured in RPMI-1640 culture medium containing 10% fetal bovine serum (containing 100 U/mL penicillin and 0.1 g/L streptomycin). All cells were cultured in an incubator with saturated humidity at 37°C with 5% CO2.
(§5) When MV-4-11 cells, HCC1187 cells, Mia Paca-2 cells, and A375 cells grew to 80%-90% confluence, they were digested with trypsin, resuspended, counted, and diluted to a certain cell density with complete medium. 100 µL of the cells was plated into each well of a 96-well plate, and the complete medium was used as a background control. The cells were cultured overnight in an incubator with saturated humidity at 37°C with 5% CO2. The compounds were diluted with DMSO to a final concentration of 200×. 3 µL of the stock solution of the above compounds in DMSO was added to 197 µL of complete medium, and 50 µL of the compound diluted in the medium was added to the cells of each well. The cells were cultured in an incubator with saturated humidity at 37°C with 5% CO2 for 72 hours. After 72 hours, the culture plates were placed at room temperature for equilibrium. 40 µL of CellTiter-Glo® reagent was added to each well. The plate was mixed evenly on a shaker for 2 minutes to lyse the cells then incubated at room temperature for 60 minutes to stabilize the chemiluminescent signal, and the chemiluminescence was read using a PE EnVision microplate reader. The inhibition rate on cell growth was calculated as % Inh = (DMSO well - compound treatment well) / (DMSO well - background well) x 100, and fitting was performed using GraphPad Prism 5 to obtain the IC50 values against cell growth.

[10] = test system: A375; assay: as above; assay type: cell-based; conditions: Homo sapiens, A-375
Protocol: as §4, §5

[11] = test system: HCC1187; assay: as above; assay type: cell-based; conditions: Homo sapiens
Protocol: as §4, §5

[12] = test system: Mia-Paca-2; assay: as above; assay type: cell-based; conditions: Homo sapiens
Protocol: as §4, §5

[13] = molecular target: CDK9 (Homo sapiens, UniProt P50750); assay: Inhibition of CDK9 kinase activity (caliper mobility shift assay); assay type: biochemical; conditions: for inhibition at 0.01 µM: compound at 10 nM
CDK9, sequence (P50750 whole entry): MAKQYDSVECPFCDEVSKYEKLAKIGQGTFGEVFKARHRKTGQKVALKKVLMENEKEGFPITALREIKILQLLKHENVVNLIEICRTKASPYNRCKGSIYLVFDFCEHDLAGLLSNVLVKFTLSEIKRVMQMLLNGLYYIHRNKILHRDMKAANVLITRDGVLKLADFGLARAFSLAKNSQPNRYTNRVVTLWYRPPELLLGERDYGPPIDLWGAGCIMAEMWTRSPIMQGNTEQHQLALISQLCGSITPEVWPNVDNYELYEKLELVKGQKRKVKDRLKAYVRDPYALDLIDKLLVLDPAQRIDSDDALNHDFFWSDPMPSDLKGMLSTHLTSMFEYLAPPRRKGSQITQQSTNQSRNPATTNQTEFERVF
CDK9, sequence (O60563 whole entry partner): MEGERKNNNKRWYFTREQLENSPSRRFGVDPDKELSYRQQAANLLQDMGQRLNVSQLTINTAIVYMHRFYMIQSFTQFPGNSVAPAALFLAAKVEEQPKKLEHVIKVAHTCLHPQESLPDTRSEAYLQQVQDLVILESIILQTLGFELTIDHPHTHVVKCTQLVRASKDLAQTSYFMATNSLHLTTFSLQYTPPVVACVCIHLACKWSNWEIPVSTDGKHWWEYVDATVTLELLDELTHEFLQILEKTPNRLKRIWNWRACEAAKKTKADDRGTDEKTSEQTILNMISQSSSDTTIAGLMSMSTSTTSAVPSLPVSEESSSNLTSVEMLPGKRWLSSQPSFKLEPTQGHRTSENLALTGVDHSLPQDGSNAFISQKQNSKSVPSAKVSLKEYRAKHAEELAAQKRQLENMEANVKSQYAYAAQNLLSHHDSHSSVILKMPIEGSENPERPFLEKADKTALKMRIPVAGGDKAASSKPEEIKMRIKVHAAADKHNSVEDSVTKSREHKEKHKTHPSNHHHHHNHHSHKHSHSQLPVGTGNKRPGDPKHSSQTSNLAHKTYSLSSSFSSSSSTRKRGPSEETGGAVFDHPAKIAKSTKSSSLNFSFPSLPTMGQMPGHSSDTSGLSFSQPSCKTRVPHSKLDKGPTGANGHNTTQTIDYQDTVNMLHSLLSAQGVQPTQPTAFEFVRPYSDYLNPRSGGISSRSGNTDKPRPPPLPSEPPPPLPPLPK
Protocol: as §1, §2

With `Clc1cnc2nc1NCCCCCNCc1cccc(c1)N2` [Compound 8, 1^5-chloro-2,5,11-triaza-1(2,4)-pyrimidina-3(1,3)-benzenacyclodecaphane] the inhibition at 0.01 µM [1] was less than 25%, the inhibition at 0.01 µM [2] was less than 25% and the inhibition at 0.01 µM [3] was less than 25%. For the same compound, the inhibition at 0.01 µM [4] was less than 25%, the inhibition at 0.01 µM [5] was 25 to 49% and the inhibition at 0.01 µM [6] was less than 25%. It also gave an inhibition at 0.01 µM [7] of less than 25%, an inhibition at 0.01 µM [8] of less than 25% and an IC50 [9] of less than 250 nM. For the same compound, the IC50 [10] was less than 250 nM, the IC50 [11] was 250 to 1000 nM and the IC50 [12] was less than 250 nM. For the same compound, the IC50 ([13]; 10 concentrations from 10 µM, three-fold dilutions) was less than 100 nM, the inhibition at 0.01 µM ([13]; selectivity panel Table 3, read-out: Inhibition rate CDK9) was greater than 50% and the inhibition at 0.01 µM ([13]; read-out: Inhibition rate on CDK9 kinase activity) was greater than 50%.
